Assay results taken from US20230026259A1, “CA2 COMPOSITIONS AND METHODS FOR TUNABLE REGULATION” (Obsidian Therapeutics, Inc., priority 2019, published 2023).

System: Activated T cells from human donor
Assay: Cell surface CAR expression of CA2 regulated CAR constructs (CD19-Fc staining)
Format: cell-based
Experimental: CA2 DD described herein were operably linked to CARs to generate tunable CAR constructs. Activated T cells from human donor were transduced with 10 μL of lentivirus for indicated constructs. […] Cell surface CAR expression was detected the following day by staining the cells with 10 ug/mL CD19-Fc followed by an anti-human-BV421 conjugated secondary antibody. Histograms were plotted from a live cell gate. Similar experiments were also performed at day 8 and the cells were harvested at day 9. The data are shown in Table 20 as percentage CAR positive cells. The stabilization ratio was also calculated and is included in Table 20 as SR.
Activated T cells from human donor were transduced with 10 μL of lentivirus for indicated constructs. […] Cell surface CAR expression was detected the following day by staining the cells with 10 ug/mL CD19-Fc followed by an anti-human-BV421 conjugated secondary antibody. The percent of ligand induced CAR+ cells are plotted from a live cell gate relative to vehicle treated negative control cells.

Cc1onc(-c2ccccc2)c1-c1ccc(S(N)(=O)=O)cc1 [Valdecoxib]
regulation of CAR expression by titrations of Valdecoxib (T cells day 8, Valdecoxib starting at 10 μM diluting 3-fold, overnight): Little to no ligand dependent regulation of CAR
CAR regulation compared between ligands (T cells, 10 μM ligand overnight, day 7 and 9): regulation was more evident at day 7
